Active and inactive are the calls of the source. No cut-off for these calls is given here.
What was measured:
[1] = biological target: T1, Muscarinic acetylcholine receptor M4 (Homo sapiens, UniProt P08173); assay: Positive allosteric modulation of human M4 receptor/Gqi5 in presence of EC20 acetylcholine by calcium mobilization assay; type: functional
T1 sequence (P08173 whole entry): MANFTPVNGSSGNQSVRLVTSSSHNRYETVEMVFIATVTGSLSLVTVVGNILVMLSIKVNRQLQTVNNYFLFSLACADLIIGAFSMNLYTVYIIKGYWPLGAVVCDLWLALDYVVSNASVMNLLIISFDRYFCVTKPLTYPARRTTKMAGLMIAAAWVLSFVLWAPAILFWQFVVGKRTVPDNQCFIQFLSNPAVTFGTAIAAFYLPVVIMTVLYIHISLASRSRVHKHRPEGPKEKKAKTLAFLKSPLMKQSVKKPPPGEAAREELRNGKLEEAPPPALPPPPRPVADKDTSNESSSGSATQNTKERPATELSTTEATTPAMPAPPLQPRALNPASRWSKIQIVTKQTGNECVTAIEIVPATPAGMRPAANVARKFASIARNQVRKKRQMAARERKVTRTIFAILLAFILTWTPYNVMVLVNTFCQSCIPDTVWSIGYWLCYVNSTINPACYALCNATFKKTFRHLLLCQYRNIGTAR

[2] = biological target: T2, Muscarinic acetylcholine receptor M4 (Homo sapiens) (UniProt P08173); assay: Positive allosteric modulation of human M4 receptor/Gqi5 in presence of EC20 acetylcholine by calcium mobilization assay relative to acetylcholine; type: functional; details: filed as positive allosteric modulator
T2 sequence (whole entry): T1 sequence (P08173 whole entry)

[3] = biological target: T3, Muscarinic acetylcholine receptor M2 (Homo sapiens, UniProt P08172); assay: Positive allosteric modulation of human M2 receptor/Gqi5 in presence of EC20 acetylcholine by calcium mobilization assay
T3 sequence (P08172 whole entry): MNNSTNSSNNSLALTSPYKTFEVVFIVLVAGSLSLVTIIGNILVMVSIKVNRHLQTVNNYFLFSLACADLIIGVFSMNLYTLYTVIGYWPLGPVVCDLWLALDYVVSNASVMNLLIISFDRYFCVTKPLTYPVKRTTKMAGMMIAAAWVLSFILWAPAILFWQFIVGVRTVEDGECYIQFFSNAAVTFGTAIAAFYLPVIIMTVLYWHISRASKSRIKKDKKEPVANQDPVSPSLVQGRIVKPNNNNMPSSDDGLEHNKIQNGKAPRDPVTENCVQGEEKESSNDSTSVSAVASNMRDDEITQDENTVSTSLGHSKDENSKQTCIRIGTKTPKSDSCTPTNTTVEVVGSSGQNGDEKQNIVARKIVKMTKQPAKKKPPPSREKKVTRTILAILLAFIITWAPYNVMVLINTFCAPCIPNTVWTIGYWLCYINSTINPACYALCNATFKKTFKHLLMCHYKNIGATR

[4] = biological target: T4, Muscarinic acetylcholine receptor M1 (Homo sapiens) (UniProt P11229); assay: Positive allosteric modulation of human M1 receptor
T4 sequence (whole entry): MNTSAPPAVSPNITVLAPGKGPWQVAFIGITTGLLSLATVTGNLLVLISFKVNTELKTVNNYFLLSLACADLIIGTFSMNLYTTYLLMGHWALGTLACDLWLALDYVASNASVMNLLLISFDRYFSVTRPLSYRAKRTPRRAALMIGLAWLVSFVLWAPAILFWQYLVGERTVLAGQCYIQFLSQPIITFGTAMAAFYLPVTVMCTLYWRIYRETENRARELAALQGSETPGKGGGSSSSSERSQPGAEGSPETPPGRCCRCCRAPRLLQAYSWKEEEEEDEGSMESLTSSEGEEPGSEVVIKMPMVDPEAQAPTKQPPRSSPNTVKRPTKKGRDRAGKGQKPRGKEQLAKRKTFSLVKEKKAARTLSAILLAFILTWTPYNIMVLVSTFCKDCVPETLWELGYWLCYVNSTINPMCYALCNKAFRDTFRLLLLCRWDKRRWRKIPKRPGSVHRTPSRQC

[5] = biological target: Muscarinic acetylcholine receptor M3 (Homo sapiens, UniProt P20309); assay: Positive allosteric modulation of human M3 receptor
Chain of Muscarinic acetylcholine receptor M3 (P20309 whole entry, looked up): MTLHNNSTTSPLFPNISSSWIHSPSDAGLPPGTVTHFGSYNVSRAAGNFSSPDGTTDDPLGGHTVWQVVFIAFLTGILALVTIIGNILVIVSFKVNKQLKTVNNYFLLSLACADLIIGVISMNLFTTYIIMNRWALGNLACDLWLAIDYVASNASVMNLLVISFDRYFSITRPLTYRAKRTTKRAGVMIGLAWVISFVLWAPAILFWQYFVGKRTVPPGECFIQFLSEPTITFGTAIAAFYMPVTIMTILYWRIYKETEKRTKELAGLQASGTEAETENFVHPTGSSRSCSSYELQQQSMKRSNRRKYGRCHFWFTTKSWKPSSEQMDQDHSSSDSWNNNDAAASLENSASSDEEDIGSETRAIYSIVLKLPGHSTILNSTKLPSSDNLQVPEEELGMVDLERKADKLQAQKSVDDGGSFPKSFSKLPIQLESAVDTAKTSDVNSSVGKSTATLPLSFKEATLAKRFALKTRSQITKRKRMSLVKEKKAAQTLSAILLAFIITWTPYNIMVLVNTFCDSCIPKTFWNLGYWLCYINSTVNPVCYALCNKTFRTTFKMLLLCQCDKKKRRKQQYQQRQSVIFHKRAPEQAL

[6] = biological target: T5, Muscarinic acetylcholine receptor M5 (Homo sapiens) (UniProt P08912); assay: Positive allosteric modulation of human M5 receptor
T5 sequence (whole entry): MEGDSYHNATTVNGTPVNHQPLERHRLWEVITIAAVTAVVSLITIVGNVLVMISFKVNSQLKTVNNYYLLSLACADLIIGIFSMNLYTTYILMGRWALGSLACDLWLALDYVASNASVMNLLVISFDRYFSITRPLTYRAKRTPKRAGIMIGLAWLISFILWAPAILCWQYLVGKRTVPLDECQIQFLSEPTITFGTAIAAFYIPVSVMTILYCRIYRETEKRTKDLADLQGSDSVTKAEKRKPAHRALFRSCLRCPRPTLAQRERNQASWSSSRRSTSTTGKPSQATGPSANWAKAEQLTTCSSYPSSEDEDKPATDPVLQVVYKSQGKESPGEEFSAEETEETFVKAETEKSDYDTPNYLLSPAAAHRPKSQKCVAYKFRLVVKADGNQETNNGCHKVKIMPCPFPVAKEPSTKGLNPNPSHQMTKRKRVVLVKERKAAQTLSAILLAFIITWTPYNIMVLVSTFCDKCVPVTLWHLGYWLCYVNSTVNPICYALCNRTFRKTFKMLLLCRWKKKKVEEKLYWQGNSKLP

[7] = Hepatic clearance in rat; type: ADME; details: in vivo
[8] = Hepatic clearance in human; type: ADME
[9] = Fraction unbound in rat plasma; type: ADME, cell-free
[10] = Fraction unbound in human plasma; type: ADME, cell-free
[11] = Fraction unbound in rat brain; type: ADME, tissue-based
[12] = Brain to plasma permeability coefficient, Kp in Sprague-Dawley rat at 0.1 to 0.2 mg/kg, iv measured after 0.25 hrs; type: ADME, organism-based; details: dose 0.1-0.2 mg/kg
[13] = Unbound brain-to-plasma concentration ratio in Sprague-Dawley rat at 0.1 to 0.2 mg/kg, iv measured after 0.25 hrs; type: ADME, organism-based; details: dose 0.1-0.2 mg/kg, read-out: K(p,uu,brain)
[14] = test system: P-gp; assay: Substrate activity at human P-gp expressed in MDCK-MDR1 cells assessed as efflux ratio; type: ADME, cell-based
[15] = biological target: T3, Muscarinic acetylcholine receptor M2; assay: Positive allosteric modulation of human M2 receptor/Gqi5 in presence of EC20 acetylcholine by calcium mobilization assay relative to acetylcholine; details: read-out: %max

EC50 [1]	%max [2]	EC50 [3]	Activity [4]	Activity [5]	Activity [6]	CLH [7]	CLH [8]	fraction unbound [9]	fraction unbound [10]	fraction unbound [11]	Kp at 0.25 h [12]	Kp uu at 0.25 h [13]	efflux ratio [14]	Emax [15]	SMILES
150 nM	49%	> 30000 nM	inactive	inactive	inactive	18.8 mL/min/kg	10.1 mL/min/kg	0.017	0.02	0.062	0.29	0.88	3	–	Cc1c(C(F)F)nnc2sc(C(=O)NC3CN(c4ncc(C(F)(F)F)cn4)C3)c(N)c12
90 nM	76%	1160 nM	inactive	inactive	inactive	10.6 mL/min/kg	4.39 mL/min/kg	0.028	0.048	0.41	0.12	0.18	4	30%	Cc1nnc2sc(C(=O)NC3CN(c4ncc(C(F)(F)F)cn4)C3)c(N)c2c1C

Reference: ChEMBL document CHEMBL4665653, “VU6005806/AZN-00016130, an advanced M positive allosteric modulator (PAM) profiled as a potential preclinical development candidate” (Bioorg Med Chem Lett, 2019)
